Data from paper PMC7774954, “Interactomic affinity profiling by holdup assay: Acetylation and distal residues impact the PDZome-binding specificity of PTEN phosphatase” (PLoS ONE, 2020).
*1 amine or outer side, *2 acyl side, *3 side chain or, on linkers, in order; H or OH if unused. Where a SMILES comes first, the peptide text is derived from it. The star is where a group is joined. X1 = O=C(CCCC[C@@H]1SC[C@@H]2NC(=O)N[C@@H]21)NCCCOCCOCCOCCCN*; Suc = O=C(CCC(=O)[*:2])[*:1]

System: 266 human PDZ domains (PDZome)
Test: Holdup assay (chromatographic retention, PDZome-binding profile, BI)
Design: key to maximal BI / Max BI / BI: binding intensity: 0.00 = no binding, 1.00 = maximal binding; Log(Kd): unit not given here
Description: The holdup method is a chromatographic approach in solution developed in our group that allows to measure the binding strength of a peptide, attached to a resin, against a library of domains of a same family. We initially proposed this method to explore the interaction between PBM peptides and the human PDZ domains. Briefly, a soluble cell lysate containing individually overexpressed PDZ domain is incubated until equilibrium with a calibrated amount of streptavidin-resin saturated either with the target biotinylated PBM peptide or with biotin as a reference. The flow-throughs containing the unbound protein fraction are recovered by filtration and loaded on a capillary electrophoresis instrument to quantify the amount of remaining free PDZ. The stronger the steady-state depletion of the PDZ domain in the flow-through as compared to the reference, the stronger the PDZ/PBM binding interaction. The assay is particularly suited to quantitatively evaluate and compare large numbers of interactions. This method delivers, for each PBM/PDZ pair, a "binding intensity" (BI), whose value can in principle range from 0.00 (no binding event detected) to 1.00 (maximal binding event). The approach has been automated and the human PDZ library was recently extended to the complete 266 PDZ domains known in human proteome. […] The high accuracy and efficiency of the holdup assay have been validated previously. Very recently, a manual version of the holdup assay with purified samples and using widespread benchtop equipment has been implemented and has proven to be reliable.
The 266 PDZ domains that constitute the PDZ library (“PDZome V.2”) used in the present work were produced using constructs with optimized boundaries as described previously. All the genes were fused to Maltose-Binding Protein (MBP) or Thioredoxin (THR) tag often used to facilitate the solubilisation of the over-expressed protein, by cloning them into the pETG41A or pETG20A plasmid, respectively. […] The expressed tag-PDZ concentrations were quantified using capillary gel electrophoresis and cell lysates were diluted to reach approximately 5 μM tag-PDZ before freezing in 96-well plates. A detailed protocol of the PDZ library production, expression and benchmarking can be found in [32]. PDZ domains are named according to their originating protein name followed by the PDZ number (e.g. NHERF1-1 as the first PDZ domain of the NHERF1 protein).
The holdup assay was performed on a Tecan freedom Evo200 robot with 384-well plates in singlicate for the three 11-mer PTEN variants and the 13-mer PTEN peptide as described in [31, 32]. Briefly, prior to interaction assay, 2.5 μL of streptavidin resin was saturated in each well with 20 μL of biotinylated PBM peptides (42 μM) and then washed twice with an excess of free biotin, while the reference resin was incubated only with biotin. Right before the holdup experiment, the PDZ library was spiked with an internal standard of lysozyme. Then, the biotin- or PBM-saturated resin was incubated, each in a distinct well of a 384-well plate, with complete cell lysates diluted so that the concentration of the tag-PDZ present in the crude extract is adjusted at 4 μM. After a sufficient time to reach complex equilibrium (15 min.), a fast and mild filtration step is performed and the tag-PDZ concentrations were measured by capillary electrophoresis instrument (LabChip GXII, PerkinElmer, Massachusets, USA). Standard markers were used to convert migration time into molecular weight on the LabChip software and inappropriate molecular weight markers were corrected or excluded.
Holdup data quality check and processing […]

[1] = PDZ domain PARD3-1, first of two lines so named (r186)

CC[C@H](C)[C@H](NC(=O)[C@H](CCC(N)=O)NC(=O)[C@@H](NC(=O)[C@H](Cc1c[nH]cn1)NC(=O)[C@H](CCC(N)=O)NC(=O)[C@H](CC(=O)O)NC(=O)[C@H](CCC(=O)O)NC(=O)[C@H](CC(=O)O)NC(=O)CCC(=O)NCCCOCCOCCOCCCNC(=O)CCCC[C@@H]1SC[C@@H]2NC(=O)N[C@@H]21)[C@@H](C)O)C(=O)N[C@H](C(=O)N[C@@H](CCCNC(=N)N)C(=O)N[C@H](C(=O)O)C(C)C)[C@@H](C)O [PTEN_KR] ({X1-Suc}-DEDQHTQITRV-OH)
number of additional new PDZ partners not detected for PTEN_11 (BI>0.20, compared with PTEN_11): ≥ 11
BI (PDZ domain MPDZ-2): 0.021
BI (PDZ domain MPDZ-3): 0.034
BI (PDZ domain MPDZ-4): -0.021
BI (PDZ domain MPDZ-5): 0.058
BI (PDZ domain MPDZ-6): 0.033
BI (PDZ domain MPDZ-7): 0.267
BI (PDZ domain MPDZ-8): 0.128
BI (PDZ domain MPDZ-13): 0.454
BI (PDZ domain MPP1-1): -0.046
BI (PDZ domain MPP2-1): -0.03
BI (PDZ domain MPP3-1): -0.023
BI (PDZ domain MPP4-1): 0.067
BI (PDZ domain MPP5-1): -0.045
BI (PDZ domain MPP6-1): -0.058
BI (PDZ domain MPP7-1): -0.023
BI (PDZ domain NHERF1-2): 0.063
BI (PDZ domain NHERF3-2): 0.002
BI (PDZ domain NHERF3-3): 0.185
BI (PDZ domain NHERF4-1): 0.041
BI (PDZ domain NHERF4-2): -0.071
BI (PDZ domain NHERF4-3): -0.035
BI (PDZ domain NHERF4-4): 0.01
BI (PDZ domain NOS1-1): 0.039
BI [1]: 0.3
Log(Kd) [1]: 4.255
BI (PDZ domain PARD3-1, second of two lines so named (r187)): -0.046
BI (PDZ domain PARD3B-1): -0.02
BI (PDZ domain PARD3B-2): -0.019
BI (PDZ domain PARD3B-3): -0.035
BI (PDZ domain PARD6G-1): -0.023
BI (PDZ domain PDLIM1-1): -0.2
BI (PDZ domain PDLIM2-1): 0.034
BI (PDZ domain PDLIM3-1): -0.065
BI (PDZ domain PDLIM4-1): -0.087
BI (PDZ domain PDLIM5-1): 0.086
BI (PDZ domain PDLIM7-1): -0.042
BI (PDZ domain PDZD2-1): -0.056
BI (PDZ domain PDZD2-3): -0.096
BI (PDZ domain PDZD2-4): -0.092
BI (PDZ domain PDZD2-5): -0.089
BI (PDZ domain PDZD2-6): 0.089
BI (PDZ domain PDZD4-1): 0.031
BI (PDZ domain PDZD7-1): -0.024
BI (PDZ domain PDZD7-2): -0.039
BI (PDZ domain PDZD7-3): 0.756
BI (PDZ domain PDZD8-1): 0.006
BI (PDZ domain PDZD11-1): -0.048
BI (PDZ domain PDZRN4-1): 0.048
BI (PDZ domain PDZRN4-2): -0.071
BI (PDZ domain PPP1R9A-1): 0.012
BI (PDZ domain PPP1R9B-1): 0.038
BI (PDZ domain PREX2-2): -0.004
BI (PDZ domain PRX-1): 0.025
BI (PDZ domain PSMD9-1): -0.039
BI (PDZ domain PTPN3-1): 0.12
BI (PDZ domain PTPN4-1): -0.038
BI (PDZ domain PTPN13-1): -0.017
BI (PDZ domain PTPN13-5): 0.096
BI (PDZ domain RAPGEF2-1): -0.11
BI (PDZ domain RHPN2-1): -0.087
BI (PDZ domain RIMS1-1): 0.013
BI (PDZ domain SCRIB-1): 0.042
BI (PDZ domain SCRIB-2): 0.147
BI (PDZ domain SCRIB-4): 0.039
BI (PDZ domain SDCBP-2): -0.067
BI (PDZ domain SHANK1-1): 0.547
BI (PDZ domain SHANK3-1): 0.554
BI (PDZ domain SHROOM2-1): 0.058
BI (PDZ domain SHROOM3-1): 0.042
BI (PDZ domain SHROOM4-1): -0.148
BI (PDZ domain SIPA1L2-1): 0.064
BI (PDZ domain SIPA1L3-1): -0.006
BI (PDZ domain SNTA1-1): 0.395
BI (PDZ domain SNTB1-1): 0.503
BI (PDZ domain SNTG1-1): 0.076
BI (PDZ domain SNTG2-1): 0.383
BI (PDZ domain STXB4-1): -0.075
BI (PDZ domain SYNJ2BP-1): -0.026
BI (PDZ domain SYNP2-1): -0.044
BI (PDZ domain SYNPO2L-1): -0.021
BI (PDZ domain TIAM2-1): 0.037
BI (PDZ domain TJP1-2): -0.006
BI (PDZ domain TJP1-3): 0.099
BI (PDZ domain TJP2-1): 0.086
BI (PDZ domain TJP2-2): -0.005
BI (PDZ domain TJP2-3): -0.025
BI (PDZ domain TJP3-2): 0.112
BI (PDZ domain TJP3-3): 0.12
BI (PDZ domain TX1B3-1): -0.019
BI (PDZ domain USH1C-1): -0.098
BI (PDZ domain USH1C-2): -0.039
BI (PDZ domain USH1C-3): -0.061
number of PDZ domains identified as potential binders (BI>0.20) (holdup, singlicate, threshold BI>0.20): 37 PDZ domains
maximal BI (holdup, singlicate, highest BI in the PDZome profile, BI standard error ~0.07): 0.86
binding of several PDZ domains (in words) (including several ones from MAGI and NHERF): detectably bound
Max BI (maximum over PDZome): 0.86
number of partners detected for PTEN_KR and not for PTEN_Ac (over a total of 37): 8
